Experimental data reported in patent US5858702A, “Isolation, cloning and expression of transmembrane water channel Aquaporin 5 (AQP5)” (The Johns Hopkins University, priority 1995, dated 1999).

Assays:
AQP1 = biological target: T1, AQP1 (Homo sapiens, UniProt P29972); test: Xenopus oocyte osmotic swelling assay, AQP1 RNA-injected oocytes treated with HgCl2 / β-mercaptoethanol; format: cell-based; conditions: for Pf: AQP1 RNA-injected (10 ng) oocytes
T1 construct: expressed in transfected cells; host or cells: Xenopus laevis oocytes injected with in vitro transcribed AQP1 RNA
T1 sequence (P29972 1-269): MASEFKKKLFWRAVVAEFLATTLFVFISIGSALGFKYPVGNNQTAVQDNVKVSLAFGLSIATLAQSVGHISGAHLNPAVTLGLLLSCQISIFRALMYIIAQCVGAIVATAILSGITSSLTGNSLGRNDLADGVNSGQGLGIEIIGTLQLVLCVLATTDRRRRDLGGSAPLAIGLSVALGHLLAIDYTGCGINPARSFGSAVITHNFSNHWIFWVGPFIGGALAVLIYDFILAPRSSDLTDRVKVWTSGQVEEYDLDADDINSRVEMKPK
Method: Expression of AOP1 in Xenopus oocytes. Oocytes were removed from female Xenopus laevis frogs and prepared as described by Dascal (CRC Crit. Rev. Biochem., 1987, 22:317-373). Oocytes were injected with 0.05 microliters of water (control) or the same volume of water containing 1-10 nanograms of AQP1 RNA. The oocytes were incubated for up to 96 hours at 18° C. in modified Barth's buffer (88 mM NaCl, 1 mM KCl, 0.8 mM MgSO4, 0.3 mM Ca(NO3) 2, 0.4 mM CaCl2, 2.4 mM NaHCO3, 10 mM HEPES, pH =7.4, total osmolality =200 mOsm/kg) also containing antibiotics. The whole oocytes were then removed and total cellular protein was dissolved in 40 microliters of buffer containing 1% (w/v) SDS and analyzed by immunoblot (Towbin et al., 1979, Proc. Natl. Acad. Sci. USA 76:4350-4354).
A swelling assay was adapted from that of published work (Fischbarg et al., 1990, Proc. Natl. Acad. Sci. USA 87:3244-3247; Zhang et al., 1990, J. Biol. Chem. 265:15375-15378). Control-injected oocytes and AQP1 RNA-injected oocytes were incubated at 22° C. in modified Barth's solution diluted with distilled H2 O to 30% of the original tonicity. The oocytes were then observed by videomicroscopy. Swelling was monitored with a Nikon phase-contrast microscope equipped for videorecording. The longest (D1) and shortest (D2) diameters of the oocytes were measured at 15- to 30-second intervals. Oocyte volumes (V) at each time point were calculated relative to volume at the initial observation (V0):
The change in relative volume with time, d(V/Vo)/dt, up to 8 minutes (or time of oocyte rupture) was fitted by computer to a quadratic polynomial, and initial rates of swelling were calculated. Osmotic water permeability (Pf, in cm/s) was calculated from osmotic swelling data, initial oocyte surface area (S=0.045 cm^2), and the molar volume of water (Vw =18 cm^3 /mol) (Zhang et al., 1990, J. Biol. Chem. 15375):
Pf =[Vo ×d(V/V0)dt]/[S×Vw
After 72 hours, control- or AQP1 RNA-injected (10 ng) oocytes were treated as indicated. Some oocytes were left in standard Barth's buffer prior to measurement of osmotic swelling at 22° C. […]

Red cell water channels = conditions: submillimolar concentrations; cited from earlier work

Row | SMILES | Pf of AQP1 oocytes after HgCl2, effect of β-mercaptoethanol (AQP1; 5 mM β-mercaptoethanol 30 min. after 1 mM HgCl2 (FIG. 15)) | Swelling of AQP1 RNA-injected oocytes after HgCl2, effect of β-mercaptoethanol (AQP1; 5 mM β-mercaptoethanol after 0.3 mM HgCl2) | Pf (AQP1; HgCl2 0.3 then ME 5 for 15 min, 22° C.) [cm/s x 10^-4] | Swelling of AQP1 RNA-injected oocytes, effect of HgCl2 (AQP1; 0.3 mM HgCl2) | effect of HgCl2 on increase in Pf mediated by AQP1 (AQP1; 1 mM HgCl2, 5 min. (FIG. 15)) | Pf (AQP1; 72 hours, HgCl2 0.3, ME 0, 5 minutes, swelling at 22° C.) [cm/s x 10^-4] | Pf (AQP1; 72 hours, HgCl2 3.0, ME 0, 5 minutes, 22° C.) [cm/s x 10^-4] | inhibition of red cell water channels (Red cell water channels)
1 | OCCS [β-mercaptoethanol] | restored | restored | 188 |  |  |  |  | 
2 | [Cl][Hg][Cl] [HgCl2] |  |  |  | inhibited | blocked | 80.7 | 34.5 | can be inhibited by submillimolar concentrations
